From US9242975B2, “Heterocyclic-substituted pyridyl compounds useful as kinase inhibitors” (Bristol-Myers Squibb Company, priority 2012, dated 2016) come the findings set out here.

By IC50 is commonly meant the concentration at which inhibition is half-maximal.

The assay concerns the target IRAK4 (Homo sapiens (Human), UniProt Q9NWZ3). Nature of the assay: IRAK4 Inhibition Assay. In kind it is biochemical. The settings on record: ATP 500 μM; FL-IPTSPITTTYFFFKKK peptide 1.5 μM; IRAK4 0.6 nM; 60 min at room temperature; Caliper LabChip 3000. As for the experimental part:
The assays were performed in U-bottom 384-well plates. The final assay volume was 30 μL prepared from 15 μL additions of enzyme and substrates (fluoresceinated peptide and ATP) and test compounds in assay buffer (20 mM HEPES pH 7.2, 10 mM MgCl2, 0.015% Brij35 and 4 mM DTT). The reaction was initiated by the combination of IRAK4 with substrates and test compounds. The reaction was incubated at room temperature for 60 min. and terminated by adding 45 μL of 35 mM EDTA to each sample. The reaction mixture was analyzed on the Caliper LabChip 3000 (Caliper, Hopkinton, Mass.) by electrophoretic separation of the fluorescent substrate and phosphorylated product. Inhibition data were calculated by comparison to no enzyme control reactions for 100% inhibition and vehicle-only reactions for 0% inhibition. The final concentrations of reagents in the assays are ATP, 500 μM; FL-IPTSPITTTYFFFKKK peptide 1.5 μM; IRAK4, 0.6 nM; and DMSO, 1.6%.

IRAK4, sequence (Q9NWZ3 whole entry): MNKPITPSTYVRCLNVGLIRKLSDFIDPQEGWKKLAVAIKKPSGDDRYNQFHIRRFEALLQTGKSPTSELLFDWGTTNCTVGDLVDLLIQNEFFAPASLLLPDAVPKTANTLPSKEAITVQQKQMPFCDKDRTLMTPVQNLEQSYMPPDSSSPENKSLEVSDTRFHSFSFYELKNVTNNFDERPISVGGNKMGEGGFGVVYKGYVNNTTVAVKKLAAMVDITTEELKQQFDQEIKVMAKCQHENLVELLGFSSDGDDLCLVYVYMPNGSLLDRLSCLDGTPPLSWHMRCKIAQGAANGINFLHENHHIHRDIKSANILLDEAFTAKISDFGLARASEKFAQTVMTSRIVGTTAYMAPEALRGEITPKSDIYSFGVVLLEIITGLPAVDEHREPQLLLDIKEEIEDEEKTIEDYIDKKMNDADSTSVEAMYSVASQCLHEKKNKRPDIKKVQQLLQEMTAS

Turning to `CNC(=O)c1nc(-c2cnc(Nc3ccc4ncsc4c3)cc2NC(C)C)sc1C` [Example 27, 2-(6-(benzo[d]thiazol-6-ylamino)-4-(isopropylamino)pyridin-3-yl)-N,5-dimethylthiazole-4-carboxamide], the IC50 was determined as 1.8 nM.
